Read-outs that look alike come from different tables or passages of the source. Ends that are not written are not given here.
Columns and labels:
PSG F325A (PSD-95) = experiment: FP displacement (competition) of FITC-15 AA CRIPT by library peptide, IC50 and Ki; settings: for IC50: read-out: IC50 (µM), PSG F325A
PSG G335A (PSD-95) = experiment: as above; settings: for IC50: read-out: IC50 (µM), PSG G335A; for Ki: read-out: Ki (µM), PSG G335A
PSG (PSD-95) = experiment: as above; settings: for IC50: read-out: IC50 (µM), PSG
PSG G322A G335A (PSD-95) = experiment: as above; settings: for IC50: read-out: IC50 (µM), PSG G322A G335A
PSG G322A (PSD-95) = experiment: as above; settings: for IC50: read-out: IC50 (µM), PSG G322A; for Ki: read-out: Ki (µM), PSG G322A
PDZ3 (PSD-95) = PDZ3 (PSD-95) (Homo sapiens, UniProt P78352); experiment: as above
Sequence of PDZ3 (PSD-95) (P78352 313-393 limits assumed): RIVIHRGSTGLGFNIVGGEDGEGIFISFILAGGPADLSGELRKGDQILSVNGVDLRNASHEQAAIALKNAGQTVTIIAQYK

PDZ1-2 (PSD-95) = experiment: Isothermal titration calorimetry; type: binding; settings: ITC
[1] = FP displacement of FITC-15 AA CRIPT probe by PSD library peptide, protein PSG G335A
[2] = FP displacement of 5 nM FITC-15 AA CRIPT by non-labeled acetylated peptide, room temperature, Ki from IC50, technical triplicates, PSG
[3] = FP displacement of FITC-15 AA CRIPT probe by PSD library peptide, protein PSG (wild type)
[4] = read-out: Ki (µM), PSG, FP displacement of FITC-15 AA CRIPT probe by PSD library peptide, protein PSG (wild type)
[5] = FP displacement of FITC-15 AA CRIPT probe by PSD library peptide, protein PSG G322A G335A
[6] = read-out: Ki (µM), PSG G322A G335A, FP displacement of FITC-15 AA CRIPT probe by PSD library peptide, protein PSG G322A G335A
[7] = FP displacement of FITC-15 AA CRIPT probe by PSD library peptide, protein PSG G322A
[8] = FP displacement of FITC-15 AA CRIPT probe by acetylated PSD library peptide
[9] = read-out: Ki (µM), PSG, FP displacement of FITC-15 AA CRIPT probe by acetylated PSD library peptide
[10] = FP displacement of FITC-15 AA CRIPT probe by acetylated PSD library peptide (P-13 to P0 plus extra N-terminal Y)
[11] = read-out: Ki (µM), PSG G322A G335A, FP displacement of FITC-15 AA CRIPT probe by acetylated PSD library peptide
[12] = Ki (µM), PDZ3, FP displacement of FITC-15 AA CRIPT probe by acetylated PSD library peptide
[13] = Ki, FP displacement of 5 nM FITC-15 AA CRIPT by non-labeled acetylated peptide, room temperature, Ki from IC50, technical triplicates, PDZ3
[14] = Ki (µM), PDZ3, FP displacement of FITC-15 AA CRIPT probe by PSD library peptide, protein PDZ3
[15] = FP displacement of FITC-15 AA CRIPT probe by library peptide

Ki (PSG G335A (PSD-95); [1]) [µM]	Ki (PSG (PSD-95); [2]) [µM]	IC50 (PSG (PSD-95); [3]) [µM]	Ki (PSG (PSD-95); [4]) [µM]	IC50 (PSG G322A G335A (PSD-95); [5]) [µM]	Ki (PSG G322A G335A (PSD-95); [6]) [µM]	IC50 (PSG G322A (PSD-95); [7]) [µM]	Ki (PSG G322A (PSD-95); [7]) [µM]	IC50 (PSG G335A (PSD-95); [8]) [µM]	Ki (PSG G335A (PSD-95); [8]) [µM]	IC50 (PSG (PSD-95); [8]) [µM]	Ki (PSG (PSD-95); [9]) [µM]	IC50 (PSG G322A G335A (PSD-95); [10]) [µM]	Ki (PSG G322A G335A (PSD-95); [11]) [µM]	Ki (PSG G322A (PSD-95); [8]) [µM]	IC50 (PDZ3 (PSD-95)) [µM]	Ki (PDZ3 (PSD-95); [12]) [µM]	Ki (PDZ3 (PSD-95); [13]) [µM]	IC50 (PSG G322A (PSD-95); [8]) [µM]	Molecule	also measured
0.753	< 75	6	2.43	2.47	0.777	3.4	1.33												CC[C@H](C)[C@H](NC(=O)[C@H](CCCCN)NC(=O)[C@@H]1CCCN1C(=O)[C@H](CC(C)C)NC(=O)[C@H](CCCNC(=N)N)NC(=O)[C@H](Cc1c[nH]cn1)NC(=O)[C@H](CO)NC(=O)CNC(=O)[C@H](CC(=O)O)NC(=O)[C@H](Cc1ccc(O)cc1)NC(C)=O)C(=O)N[C@@H](CCCCN)C(=O)N[C@@H](CCC(=O)O)C(=O)N[C@H](C(=O)N[C@H](C(=O)N[C@H](C(=O)O)C(C)C)[C@@H](C)O)[C@@H](C)O [FRPD4]	IC50 (PSG F325A (PSD-95); FP displacement of FITC-15 AA CRIPT probe by PSD library peptide, protein PSG F325A): 18 µM; Ki (PSG F325A (PSD-95); read-out: Ki (µM), PSG F325A, FP displacement of FITC-15 AA CRIPT probe by PSD library peptide, protein PSG F325A): 9 µM; IC50 (PSG G335A (PSD-95); [1]): 2.55 µM
								77	27	239	101	63	22	45	182	75	< 75		CC(=O)N[C@@H](Cc1ccc(O)cc1)C(=O)N[C@@H](CO)C(=O)N[C@@H](CC(C)C)C(=O)N[C@@H](CO)C(=O)N[C@@H](CCCCN)C(=O)N[C@@H](Cc1c[nH]cn1)C(=O)N[C@@H](CCC(=O)O)C(=O)N[C@@H](CO)C(=O)N[C@@H](CCC(=O)O)C(=O)N[C@@H](Cc1ccc(O)cc1)C(=O)N[C@@H](CC(N)=O)C(=O)N[C@H](C(=O)N[C@H](C(=O)N[C@@H](CCCNC(=N)N)C(=O)N[C@H](C(=O)O)C(C)C)[C@@H](C)O)[C@@H](C)O [NETO1]	
9	< 75	118	61	22	7.42	56	24										< 75		CC(=O)N[C@@H](Cc1ccc(O)cc1)C(=O)N[C@@H](Cc1c[nH]cn1)C(=O)N1CCC[C@H]1C(=O)N[C@@H](Cc1c[nH]cn1)C(=O)N1CCC[C@H]1C(=O)N[C@@H](Cc1c[nH]cn1)C(=O)N1CCC[C@H]1C(=O)N[C@@H](Cc1c[nH]cn1)C(=O)N[C@@H](CO)C(=O)N[C@@H](Cc1c[nH]cn1)C(=O)N[C@@H](CO)C(=O)N[C@H](C(=O)N[C@H](C(=O)N[C@@H](CCCNC(=N)N)C(=O)N[C@H](C(=O)O)C(C)C)[C@@H](C)O)[C@@H](C)O [NLGN1]	Ki (PDZ3 (PSD-95); [14]): 72 µM
								39	14	184	78	43	15	31	62	40	< 75	72	CC(=O)N[C@@H](Cc1ccc(O)cc1)C(=O)N[C@@H](CC(N)=O)C(=O)N[C@@H](CO)C(=O)N[C@H](C(=O)N[C@@H](CC(N)=O)C(=O)N[C@@H](CC(C)C)C(=O)N1CCC[C@H]1C(=O)N[C@@H](Cc1c[nH]cn1)C(=O)NCC(=O)N[C@@H](Cc1c[nH]cn1)C(=O)N[C@@H](CO)C(=O)N[C@H](C(=O)N[C@H](C(=O)N[C@@H](CCCNC(=N)N)C(=O)N[C@H](C(=O)O)C(C)C)[C@@H](C)O)[C@@H](C)O)[C@@H](C)O [NLGNX]	
95		463	243	156	54	153	66												CC[C@H](C)[C@H](NC(=O)[C@H](CO)NC(=O)[C@@H]1CCCN1C(=O)[C@H](CCSC)NC(=O)[C@H](CCCCN)NC(=O)[C@H](CCCCN)NC(=O)[C@H](Cc1ccc(O)cc1)NC(=O)[C@@H](NC(=O)[C@H](CCCNC(=N)N)NC(=O)[C@H](CCCNC(=N)N)NC(=O)[C@H](Cc1ccc(O)cc1)NC(C)=O)C(C)C)C(=O)N[C@@H](CCC(=O)O)C(=O)N[C@@H](CO)C(=O)N[C@@H](CC(=O)O)C(=O)N[C@H](C(=O)O)C(C)C [NMDE1]	IC50 (PSG G335A (PSD-95); [1]): 267 µM; Ki (PDZ3 (PSD-95); [14]): 172 µM
								233	83	427	181	76	26	57	67	27	< 75	133	CC[C@H](C)[C@H](NC(=O)[C@@H]1CCCN1C(=O)[C@H](Cc1ccc(O)cc1)NC(C)=O)C(=O)NCC(=O)NCC(=O)N[C@@H](CO)C(=O)N[C@@H](CC(C)C)C(=O)N[C@@H](CC(N)=O)C(=O)N[C@@H](CO)C(=O)N[C@H](C(=O)N[C@H](C(=O)N[C@@H](CC(=O)O)C(=O)N[C@@H](CO)C(=O)N[C@@H](C)C(=O)N[C@@H](CC(C)C)C(=O)O)[C@@H](C)O)[C@@H](C)O [RGS14]	
	< 75							1.12	0.24	4.24	0.913	0.922	0.243	0.4				1.31	CC(=O)N[C@@H](Cc1ccc(O)cc1)C(=O)N[C@@H](CCC(N)=O)C(=O)N[C@@H](CCCNC(=N)N)C(=O)NCC(=O)N[C@@H](CO)C(=O)N[C@@H](Cc1ccccc1)C(=O)N1CCC[C@H]1C(=O)N1CCC[C@H]1C(=O)N[C@@H](Cc1c[nH]c2ccccc12)C(=O)N[C@H](C(=O)N[C@@H](CCC(N)=O)C(=O)N[C@@H](CCC(N)=O)C(=O)N[C@H](C(=O)N[C@@H](CCCNC(=N)N)C(=O)N[C@H](C(=O)O)C(C)C)[C@@H](C)O)C(C)C [SYNGAP⍺1]	IC50 (PSG F325A (PSD-95); [8]): 8 µM
	< 75							24	8.45	67	28	12	4	9	58	23	< 75	21	CC[C@H](C)[C@H](NC(=O)[C@H](Cc1ccccc1)NC(=O)[C@H](CO)NC(=O)[C@H](CCCNC(=N)N)NC(=O)[C@H](CCCCN)NC(=O)[C@@H]1CCCN1C(=O)[C@H](CCCCN)NC(=O)[C@H](C)NC(=O)[C@H](C)NC(=O)[C@@H](NC(=O)[C@H](Cc1ccc(O)cc1)NC(C)=O)[C@@H](C)O)C(=O)N[C@@H](CCC(=O)O)C(=O)N[C@@H](CO)C(=O)N[C@@H](CC(N)=O)C(=O)N[C@H](C(=O)O)C(C)C [TANC1]	
															333				Ac-YSSPAQSVTPVQTVV [MTMR2]	IC50 (PSG G335A (PSD-95); [15]): 277 µM; Ki (PSG G335A (PSD-95); [15]): 99 µM; IC50 (PSG (PSD-95); [15]): 271 µM; Ki (PSG (PSD-95); read-out: Ki (µM), PSG, FP displacement of FITC-15 AA CRIPT probe by library peptide): 115 µM; Ki (PSG G322A G335A (PSD-95); FP displacement of 5 nM FITC-15 AA CRIPT by non-labeled acetylated peptide, room temperature, Ki from IC50, PSG G322A G335A): 95 µM; IC50 (PSG G322A (PSD-95); [15]): 295 µM; Ki (PDZ3 (PSD-95); Ki (µM), PDZ3, FP displacement of FITC-15 AA CRIPT probe by library peptide): 139 µM
																			FL CC ADGRB1: expressed full-length coiled-coil C-terminal part of ADGRB1, residues 1,471–1,584	Higher affinity for PDZ1-2 in comparison with PSG WT (PDZ1-2 (PSD-95)): 3 fold

— paper PMC9490041, “Determinants of affinity, specificity, and phase separation in a supramodule from Post-synaptic density protein 95” (iScience, 2022)
